# How the values were obtained:
# [1] = system: soluble HLA-A2 molecules; conditions: synthetic peptide; Chang et al., (2003) Tissue Antigens 62: 408-417; cited from earlier work
# [2] = system: CD8 T cells from HLA-A2+ type 1 diabetic patients; assay: Interferon-gamma cytokine ELISPOT with patient PBMCs; assay type: cell-based, human; conditions: PBMCs of patients with new-onset type 1 diabetes and HLA-A2; peptide 10 μM; FIG. 8a
# Protocol: The following ELISPOT assays were carried out using the methods substantially as described in Arif et al., (2004) J Clin Invest 113: 451-63.
# Fresh peripheral blood mononuclear cells (PBMCs) in RPMI 1640 supplemented with antibiotics (TC medium; all Life Technologies) and 10% human AB serum (Harlan SeraLab, Leicestershire, UK) were dispensed into 48-well plates at a density of 2×10^6 cells in 0.5 ml supplemented with peptide to a final concentration of 10 μM and incubated at 37° C., 5% CO2, tilted by 5°. Control wells comprised TC medium containing an equivalent concentration of peptide diluent alone (DMSO). On day +1, 0.5 ml pre-warmed TC medium/10% AB was added and on day +2, non-adherent cells were re-suspended using pre-warmed TC medium/2% AB, washed, brought to a concentration of 1×10^6 cells/300 μl and 100 μl dispensed in triplicate into wells of 96-well ELISA plates (Nunc Maxisorp, Merck, Poole, UK) pre-blocked with 1% BSA in PBS and pre-coated with monoclonal anti-IFN-γ capture antibody (U-Cytech, Utrecht, NL). After capture at 37° C., 5% CO2 for 7 hours, cells were lysed in ice cold water, plates washed in PBS/Tween 20 and spots developed according to the manufacturer's instructions. Plates were dried and spots of 80-120 μm counted in a BioReader 3000 (BioSys, Karben, Germany). […]
Sequence,Capability of being loaded in-vitro by soluble HLA-A2 [1],CD8 T cell reactivity to PPI peptide by interferon-gamma ELISPOT [2]
ALWGPDPAAA [PPI15-24],capable of being loaded in-vitro by soluble HLA-A2 molecules,demonstrate the presence of CD8 T cells specific for
WGPDPAAA [PPI17-24],–,demonstrate the presence of CD8 T cells specific for

# Source: patent US8906383B2, “T cell receptor having binding affinity for a peptide-MHC complex and uses thereof” (King's College London, priority 2007, dated 2014)
